Test results from BindingDB's records for patent US20190276450 (Abbvie, 2019).
pEC50: −log10 of the molar value.

Tests used:
[1] = target: Tyrosine-protein kinase JAK2 (Homo sapiens, UniProt O60674); assay: JAK2 (PSTAT5 UT7) Alpha Screen Assay
Experimental: (§1) Erythropoietin (EPO) is known to transduce its signal through EPO receptor via Jak2. Activity against Jak2 was therefore measured by determining inhibition of EPO induced phosphorylation of STATS in UT7 cells. From these tests, the EC50 (effective concentration for 50% maximal response) values were determined in 1 μM for the test compounds.

[2] = target: Tyrosine-protein kinase JAK1 (Homo sapiens, UniProt P23458); assay: JAK1 (PSTAT3 TF1) Alpha Screen Assay
Chain of Tyrosine-protein kinase JAK1 (P23458 whole entry): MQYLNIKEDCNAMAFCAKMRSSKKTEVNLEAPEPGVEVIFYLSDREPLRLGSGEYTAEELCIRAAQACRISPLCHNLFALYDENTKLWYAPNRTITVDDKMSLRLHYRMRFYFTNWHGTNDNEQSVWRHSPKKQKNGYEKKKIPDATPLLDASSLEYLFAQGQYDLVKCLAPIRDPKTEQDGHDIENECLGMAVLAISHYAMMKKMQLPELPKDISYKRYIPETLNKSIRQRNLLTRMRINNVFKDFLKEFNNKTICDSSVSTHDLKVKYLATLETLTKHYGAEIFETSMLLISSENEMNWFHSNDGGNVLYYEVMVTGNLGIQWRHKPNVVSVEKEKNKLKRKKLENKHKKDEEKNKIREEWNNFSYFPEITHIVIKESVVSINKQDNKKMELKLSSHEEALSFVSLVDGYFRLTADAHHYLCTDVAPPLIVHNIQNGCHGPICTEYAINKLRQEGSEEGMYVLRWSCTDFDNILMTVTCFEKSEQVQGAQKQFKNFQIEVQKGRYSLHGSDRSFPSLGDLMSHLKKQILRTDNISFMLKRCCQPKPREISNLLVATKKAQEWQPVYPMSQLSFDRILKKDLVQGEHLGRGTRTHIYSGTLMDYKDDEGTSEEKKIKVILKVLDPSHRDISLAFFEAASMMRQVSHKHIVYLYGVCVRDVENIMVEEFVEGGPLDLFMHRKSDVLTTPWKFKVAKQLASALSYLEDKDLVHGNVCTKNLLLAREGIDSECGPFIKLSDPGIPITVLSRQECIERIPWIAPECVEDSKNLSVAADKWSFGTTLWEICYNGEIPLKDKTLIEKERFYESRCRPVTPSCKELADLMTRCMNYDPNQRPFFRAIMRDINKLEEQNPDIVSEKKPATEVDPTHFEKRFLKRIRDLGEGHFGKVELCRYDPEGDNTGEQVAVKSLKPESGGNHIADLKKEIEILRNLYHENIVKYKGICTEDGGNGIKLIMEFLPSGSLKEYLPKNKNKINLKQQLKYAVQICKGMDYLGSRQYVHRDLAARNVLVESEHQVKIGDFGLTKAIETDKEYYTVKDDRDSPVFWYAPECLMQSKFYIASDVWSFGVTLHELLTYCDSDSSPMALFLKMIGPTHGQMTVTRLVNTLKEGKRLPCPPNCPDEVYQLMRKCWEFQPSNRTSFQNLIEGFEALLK
Experimental: as §1, with “IL-6” for “Erythropoietin (EPO)”, “IL-6” for “EPO”, “Jak1.” for “Jak2.”, “Jak” for “Jak2”, “STAT3” for “STATS”, “TF1” for “UT7”

[3] = target: Non-receptor tyrosine-protein kinase TYK2 (Homo sapiens, UniProt P29597); assay: TYK2 (TYK2/JAK2 PSTAT4 T-BLAST) Alpha Screen Assay
Chain of Non-receptor tyrosine-protein kinase TYK2 (P29597 whole entry): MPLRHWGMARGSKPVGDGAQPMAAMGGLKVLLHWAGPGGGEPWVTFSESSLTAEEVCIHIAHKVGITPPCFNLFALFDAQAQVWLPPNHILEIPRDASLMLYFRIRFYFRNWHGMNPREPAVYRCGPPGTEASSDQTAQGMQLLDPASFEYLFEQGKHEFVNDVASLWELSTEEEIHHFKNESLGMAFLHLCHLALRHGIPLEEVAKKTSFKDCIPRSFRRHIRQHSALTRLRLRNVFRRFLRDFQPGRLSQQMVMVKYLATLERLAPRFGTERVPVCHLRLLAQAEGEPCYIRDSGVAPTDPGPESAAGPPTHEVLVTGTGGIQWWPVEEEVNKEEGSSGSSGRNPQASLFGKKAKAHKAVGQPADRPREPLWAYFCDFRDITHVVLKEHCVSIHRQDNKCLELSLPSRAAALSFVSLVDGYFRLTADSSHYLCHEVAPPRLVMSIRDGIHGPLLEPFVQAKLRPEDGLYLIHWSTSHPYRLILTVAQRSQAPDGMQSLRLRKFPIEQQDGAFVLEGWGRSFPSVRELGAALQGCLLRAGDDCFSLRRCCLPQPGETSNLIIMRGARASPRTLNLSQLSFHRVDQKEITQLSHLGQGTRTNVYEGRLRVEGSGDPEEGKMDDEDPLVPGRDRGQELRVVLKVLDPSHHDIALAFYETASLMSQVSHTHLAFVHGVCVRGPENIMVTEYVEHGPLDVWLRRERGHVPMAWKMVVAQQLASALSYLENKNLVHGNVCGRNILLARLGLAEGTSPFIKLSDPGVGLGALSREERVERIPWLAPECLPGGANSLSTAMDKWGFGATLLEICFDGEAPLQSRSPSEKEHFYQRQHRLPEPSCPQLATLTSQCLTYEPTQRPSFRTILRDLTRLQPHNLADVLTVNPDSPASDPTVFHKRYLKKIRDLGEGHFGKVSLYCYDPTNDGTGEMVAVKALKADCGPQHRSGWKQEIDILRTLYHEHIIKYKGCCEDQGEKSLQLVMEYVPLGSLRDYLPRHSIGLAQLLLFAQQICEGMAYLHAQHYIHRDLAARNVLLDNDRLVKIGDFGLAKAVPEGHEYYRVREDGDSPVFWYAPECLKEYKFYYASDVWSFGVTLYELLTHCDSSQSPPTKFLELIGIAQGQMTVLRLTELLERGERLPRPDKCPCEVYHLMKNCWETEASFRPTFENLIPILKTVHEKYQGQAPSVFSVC
Experimental: IL-12 is known to transduce its signal through IL-12 receptor via Jak2 and/or Tyk2. For that reason, the activity against Tyk2/Jak2 was measured by determining the inhibition of IL-12 induced phosphorylation of STAT4 in T-blast cells. […] See, e.g., Sohn et al., J. Immunology (2013) 2205-2216.

Chain of Tyrosine-protein kinase JAK2 (O60674 whole entry): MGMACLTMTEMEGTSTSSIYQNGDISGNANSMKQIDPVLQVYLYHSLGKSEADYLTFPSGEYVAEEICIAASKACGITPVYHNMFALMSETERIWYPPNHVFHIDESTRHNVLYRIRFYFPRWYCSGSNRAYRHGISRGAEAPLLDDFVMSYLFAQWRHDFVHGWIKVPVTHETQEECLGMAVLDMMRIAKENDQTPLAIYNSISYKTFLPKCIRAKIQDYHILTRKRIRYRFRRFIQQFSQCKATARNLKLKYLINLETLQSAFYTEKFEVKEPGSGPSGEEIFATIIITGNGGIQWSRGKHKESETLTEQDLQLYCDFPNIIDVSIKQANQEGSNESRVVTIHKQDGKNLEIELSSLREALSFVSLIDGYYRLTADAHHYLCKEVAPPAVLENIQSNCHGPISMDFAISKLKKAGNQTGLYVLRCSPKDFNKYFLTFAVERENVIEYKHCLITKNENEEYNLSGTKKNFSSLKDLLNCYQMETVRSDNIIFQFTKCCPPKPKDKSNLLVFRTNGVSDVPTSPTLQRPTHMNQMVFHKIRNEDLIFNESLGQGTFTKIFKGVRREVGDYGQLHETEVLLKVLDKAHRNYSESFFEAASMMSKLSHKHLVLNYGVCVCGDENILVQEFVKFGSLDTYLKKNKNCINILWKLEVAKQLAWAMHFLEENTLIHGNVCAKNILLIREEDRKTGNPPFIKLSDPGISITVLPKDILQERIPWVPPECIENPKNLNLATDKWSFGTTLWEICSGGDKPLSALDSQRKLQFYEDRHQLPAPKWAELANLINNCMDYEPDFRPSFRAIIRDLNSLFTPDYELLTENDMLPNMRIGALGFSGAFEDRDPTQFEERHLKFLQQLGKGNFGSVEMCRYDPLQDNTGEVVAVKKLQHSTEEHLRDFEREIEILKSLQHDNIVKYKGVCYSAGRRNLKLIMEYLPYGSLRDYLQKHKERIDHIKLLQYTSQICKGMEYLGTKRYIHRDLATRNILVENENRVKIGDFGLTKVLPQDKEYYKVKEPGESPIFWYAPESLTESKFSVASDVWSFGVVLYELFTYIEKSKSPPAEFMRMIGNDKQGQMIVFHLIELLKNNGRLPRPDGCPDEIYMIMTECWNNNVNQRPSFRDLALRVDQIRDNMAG

Structure (SMILES) | pEC50 [1] | pEC50 [2] | pEC50 [3]
COCc1cc(-c2cn(C)c3cnc(NC(N)=O)cc23)nc([C@]2(OC)CCOC2)c1 [US20190276450, Example 3] | < 4.60 | 4.74 | 7.46
CO[C@@]1(c2cc(C(F)F)cc(-c3cn(C4COC4)c4cnc(NC(C)=O)cc34)n2)CCOC1 [US20190276450, Example 4.3] | < 4.60 | 4.27 | 6.76
COCc1cc(-c2cn(C3COC3)c3cnc(NC(C)=O)cc23)nc([C@]2(OC)CCOC2)c1 [US20190276450, Example 4] | < 4.60 | < 4.00 | 6.86
CO[C@@]1(c2cc(OCC3COC3)cc(-c3cn(C)c4cnc(NC(C)=O)cc34)n2)CCOC1 [US20190276450, Example 6] | < 4.60 | 4.68 | 7.30
CO[C@@]1(c2cc(OCC[C@@H](C)O)cc(-c3cn(C)c4cnc(NC(C)=O)cc34)n2)CCOC1 [US20190276450, Example 7] | < 4.60 | 4.47 | 6.06
CO[C@@]1(c2cc(OCC[C@H](C)O)cc(-c3cn(C)c4cnc(NC(C)=O)cc34)n2)CCOC1 [US20190276450, Example 9] | < 4.60 | 4.38 | 7.07
CO[C@@]1(c2cc(OCCO)cc(-c3cn(C)c4cnc(NC(C)=O)cc34)n2)CCOC1 [US20190276450, Example 10] | < 4.60 | 4.57 | 7.04
CO[C@@]1(c2cc(O[C@H]3C[C@H](O)C3)cc(-c3cn(C)c4cnc(NC(C)=O)cc34)n2)CCOC1 [US20190276450, Example 11] | < 4.60 | 4.64 | 7.28
CO[C@@]1(c2cc(C#N)cc(-c3cn(C)c4cnc(NC(N)=O)cc34)n2)CCOC1 [US20190276450, Example 12.3] | < 4.60 | 4.89 | 7.03
COc1cc(-c2cn(C)c3cnc(NC(N)=O)cc23)nc([C@]2(OC)CCOC2)c1 [US20190276450, Example 12.6] | < 4.60 | 4.82 | 7.41
CO[C@@]1(c2cncc(-c3cn(C)c4cnc(NC(N)=O)cc34)n2)CCOC1 [US20190276450, Example 12] | < 4.60 | 4.79 | 6.61
CO[C@@]1(c2cc(O[C@@H](C)CCO)cc(-c3cn(C)c4cnc(NC(C)=O)cc34)n2)CCOC1 [US20190276450, Example 14.4] | < 4.60 | 4.20 | 6.87
CO[C@@]1(c2cc(OC[C@H](C)O)cc(-c3cn(C)c4cnc(NC(C)=O)cc34)n2)CCOC1 [US20190276450, Example 14.5] | < 4.60 | 4.15 | 6.84
CO[C@@]1(c2cc(OC[C@@H](C)O)cc(-c3cn(C)c4cnc(NC(C)=O)cc34)n2)CCOC1 [US20190276450, Example 14.6] | < 4.60 | 4.31 | 7.06
CO[C@@]1(c2cc(C(F)F)cc(-c3cn([C@H]4C[C@H](C#N)C4)c4cnc(NC(C)=O)cc34)n2)CCOC1 [US20190276450, Example 17.2] | < 4.60 | 4.46 | 6.84
CO[C@@]1(c2cccc(-c3cn([C@H]4C[C@H](C#N)C4)c4cnc(NC(C)=O)cc34)n2)CCOC1 [US20190276450, Example 17] | < 4.60 | 4.57 | 7.51
CC(=O)Nc1cc2c(-c3cccc([C@]4(CO)CCOC4)n3)cn(C)c2cn1 [US20190276450, Example 21] | < 4.60 | 5.55 | 7.10
CO[C@@]1(c2cc(OC(F)F)cc(-c3cn(C)c4cnc(NC(C)=O)cc34)n2)CCOC1 [US20190276450, Example 22.2] | < 4.60 | 4.46 | 7.05
CC(=O)Nc1cc2c(-c3cc(C(F)F)cc([C@]4(CO)CCOC4)n3)cn(C)c2cn1 [US20190276450, Example 22.5] | < 4.60 | 5.15 | 7.14
COc1cc(-c2cn(C)c3cnc(NC(C)=O)cc23)nc([C@]2(CO)CCOC2)c1 [US20190276450, Example 22.6] | < 4.60 | 4.95 | 6.89
COCCOc1cc(-c2cn(C)c3cnc(NC(C)=O)cc23)nc([C@]2(CO)CCOC2)c1 [US20190276450, Example 22.8] | < 4.60 | 4.72 | 6.74
CO[C@H](C)COc1cc(-c2cn(C)c3cnc(NC(C)=O)cc23)nc([C@]2(OC)CCOC2)c1 [US20190276450, Example 22.10] | < 4.60 | < 4.60 | 7.04
COCc1cc(-c2cn(C)c3cnc(NC(C)=O)cc23)nc([C@]2(CO)CCOC2)c1 [US20190276450, Example 22] | < 4.60 | 4.98 | 6.84
COCc1cc(-c2cn(C)c3cnc(NC(C)=O)cc23)nc([C@@]2(CO)CCOC2)c1 [US20190276450, Example 22a] | < 4.60 |  | 5.92
COCc1cc(-c2cn(C)c3cnc(NC(=O)CO)cc23)nc([C@]2(OC)CCOC2)c1 [US20190276450, Example 24] | < 4.60 | < 4.00 | 7.04
COCCOc1cc(-c2cn(C)c3cnc(NC(C)=O)cc23)nc([C@]2(OC)CCOC2)c1 [US20190276450, Example 25] | < 4.60 | 4.31 | 7.60
CO[C@@]1(c2cc(C(F)F)cc(-c3cn(C)c4cnc(NC(=O)CO)cc34)n2)CCOC1 [US20190276450, Example 26] | < 4.60 | < 4.60 | 7.30

Second part, the compound after the results:

pEC50 [1] | pEC50 [2] | pEC50 [3] | Structure (SMILES)
< 4.60 | 4.87 | 7.35 | CO[C@@]1(c2cccc(-c3cn([C@@H]4CC4(F)F)c4cnc(NC(N)=O)cc34)n2)CCOC1 [US20190276450, Example 1.2]
< 4.60 | 5.26 | 7.23 | CO[C@@]1(c2cccc(-c3cn(C)c4cnc(NC(N)=O)cc34)n2)CCOC1 [US20190276450, Example 1]
< 4.60 | 4.68 | 7.60 | CO[C@@]1(c2cc(C)cc(-c3cn(C)c4cnc(NC(N)=O)cc34)n2)CCOC1 [US20190276450, Example 1b.2]
< 4.60 | 5.12 | 6.85 | COC1(c2cccc(-c3cn(C)c4cnc(NC(N)=O)cc34)n2)COC1 [US20190276450, Example 1b.4]
< 4.60 | 5.82 | 7.74 | Cn1cc(-c2cncc([C@]3(C)CCOC3)n2)c2cc(NC(N)=O)ncc21 [US20190276450, Example 1b.5]
< 4.60 | 5.38 | 6.71 | Cn1cc(-c2cncc([C@@]3(C)CCOC3)n2)c2cc(NC(N)=O)ncc21 [US20190276450, Example 1b.6]
< 4.60 | 4.39 | 6.70 | CO[C@@]1(c2cc(C)cc(-c3cn(C)c4cnc(NC(C)=O)cc34)n2)CCOC1 [US20190276450, Example 2.2]
< 4.60 | 4.77 | 7.38 | CO[C@@]1(c2cc(C(F)F)cc(-c3cn(C)c4cnc(NC(C)=O)cc34)n2)CCOC1 [US20190276450, Example 2.8]
< 4.60 | 5.12 | 6.98 | CC[C@]1(c2cc(C#N)cc(-c3cn(C)c4cnc(NC(C)=O)cc34)n2)CCOC1 [US20190276450, Example 2.11]
< 4.60 | < 4.40 | 6.90 | COCc1cc(-c2cn(C)c3cnc(NC(C)=O)cc23)nc([C@]2(OC)CCOC2)c1 [US20190276450, Example 2]
< 4.60 | 4.25 | 6.90 | CO[C@@]1(c2cc(C#N)cc(-c3cn([C@@H]4CC4(F)F)c4cnc(NC(C)=O)cc34)n2)CCOC1 [US20190276450, Example 2a.3]
< 4.60 | 5.47 | 7.85 | CC[C@@]1(c2cccc(-c3cn(C)c4cnc(NC(N)=O)cc34)n2)CCOC1 [US20190276450, Example 3.2]
